# Results: US11180504B2 (ORCHID PHARMA LTD., priority 2016, dated 2021)
# Read-outs that look alike come from different tables or passages of the source.
# Key:
# [1] = test system: carbapenem sensitive Pseudomonas aeruginosa; test: MIC by broth micro-dilution (CLSI), carbapenem sensitive P. aeruginosa; assay type: cell-based
# [2] = test system: carbapenem sensitive Escherichia coli; test: MIC by broth micro-dilution (CLSI), carbapenem sensitive E. coli; assay type: cell-based
# [3] = test system: carbapenemase producing K. pneumoniae; test: MIC by broth micro-dilution (CLSI), carbapenemase producing K. pneumoniae; assay type: cell-based, Klebsiella pneumoniae
# [4] = test system: methicillin-sensitive Staphylococcus aureus; test: MIC by broth micro-dilution (CLSI), methicillin-sensitive S. aureus; assay type: cell-based; details: MSSA S. aureus ATCC29213
# [5] = Pseudomonas aeruginosa, ATCC27853, Meropenem susceptible P. aeruginosa ATCC27853, read-out: MIC
# [6] = Escherichia coli, ATCC25922, ESBL −ve E. coli ATCC25922, read-out: MIC
# [7] = Klebsiella pneumoniae, ATCCBAA1705, KPC-2 K. pneumoniae ATCC BAA-1705, read-out: MIC
# [8] = Staphylococcus aureus, ATCC 29213 / MSSA, read-out: MIC
SMILES,"MIC [1, 5] [µg/mL]","MIC [2, 6] [µg/mL]","MIC [3, 7] [µg/mL]","MIC [4, 8] [µg/mL]",MIC ([1]; Meropenem susceptible P. aeruginosa ATCC27853) [µg/mL],MIC ([2]; ESBL −ve E. coli ATCC25922) [µg/mL],MIC ([3]; KPC-2 K. pneumoniae ATCC BAA-1705) [µg/mL],MIC [4] [µg/mL]
"C[C@@H](NC(=O)Cn1cnnn1)[C@H]1C(=O)N2C(C(=O)O)=C(S[C@@H]3CN[C@H](C(=O)N4CC[C@H](N)[C@@H](O)C4)C3)[C@H](C)[C@H]12 [Example 554, (4R,5S,6R)-6-((R)-1-(2-(1H-tetrazol-1-yl)acetamido)ethyl)-3-((3S,5S)-5-((3S,4S)-4-amino-3-hydroxypiperidine-1-carbonyl)-pyrrolidin-3-ylthio)-4-methyl-7-oxo-1-azabicyclo[3.2.0]hept-2-ene-2-carboxylic acid]",2,0.5,2,4,–,–,–,–
"C[C@@H](NC(=O)Cn1cnnn1)[C@H]1C(=O)N2C(C(=O)O)=C(S[C@@H]3CN[C@H](C(=O)N4CCC5CNCC5(C(=O)O)C4)C3)[C@H](C)[C@H]12 (stereo partly drawn) [Example 562, 5-((2S,4S)-4-((4R,5S,6R)-6-((R)-1-(2-(1H-tetrazol-1-yl)acetamido)ethyl)-2-carboxy-4-methyl-7-oxo-1-azabicyclo[3.2.0]hept-2-en-3-yl-thio)pyrrolidine-2-carbonyl)octahydro-1H-pyrrolo[3,4-c]pyridine-3a-carboxylic acid]",2,0.5,2,16,–,–,–,–
"C[C@@H](NC(=O)Cn1cnnn1)[C@H]1C(=O)N2C(C(=O)O)=C(S[C@@H]3CN[C@H](C(=O)N4CCC5CNCC5(C(=O)O)C4)C3)[C@H](C)[C@H]12 (stereo partly drawn) [Example 563, 5-((2S,4S)-4-((4R,5S,6R)-6-((R)-1-(2-(1H-tetrazol-1-yl)acetamido)ethyl)-2-carboxy-4-methyl-7-oxo-1-azabicyclo[3.2.0]hept-2-en-3-yl-thio)pyrrolidine-2-carbonyl)octahydro-1H-pyrrolo[3,4-c]pyridine-3a-carboxylic acid]",–,–,–,–,2,0.25,2,16
"C[C@@H](NC(=O)Cn1cnnn1)[C@H]1C(=O)N2C(C(=O)O)=C(S[C@@H]3CN[C@H](C(=O)N4CC5C[C@@H]6C[C@]5(CN6)C4)C3)[C@H](C)[C@H]12 (stereo partly drawn) [Example 564, (4R,5S,6R)-6-((R)-1-(2-(1H-tetrazol-1-yl)acetamido)ethyl)-3-((3S,5S)-5-((1S,7R)-3,8-Diaza-tricyclo[5.2.1.01,5]decane-3-carbonyl)-pyrrolidin-3-ylthio)-4-methyl-7-oxo-1-azabicyclo[3.2.0]hept-2-ene-2-carbnxylic acid]",1,0.125,1,2,–,–,–,–
"C[C@@H](NC(=O)Cn1cnnn1)[C@H]1C(=O)N2C(C(=O)O)=C(S[C@@H]3CN[C@H](C(=O)N4C[C@H](N)[C@H](NC(=N)N)C4)C3)[C@H](C)[C@H]12 [Example 565, (4R,5S,6R)-6-((R)-1-(2-(1H-tetrazol-1-yl)acetamido)ethyl)-3-((3S,5S)-5-((3S,4R)-3-amino-4-guanidinopyrrolidine-1-carbonyl)-pyrrolidin-3-ylthio)-4-methyl-7-oxo-1-azabicyclo[3.2.0]hept-2-ene-2-carboxylic acid]",1,0.25,2,2,–,–,–,–
"C[C@@H](NC(=O)Cn1cnnn1)[C@H]1C(=O)N2C(C(=O)O)=C(S[C@@H]3CN[C@H](C(=O)N4CC(NC(=N)N)C4)C3)[C@H](C)[C@H]12 [Example 566, (4R,5S,6R)-6-((R)-1-(2-(1H-tetrazol-1-yl)acetamido)ethyl)-3-((3S,5S)-5-(3-guanidinoazetidine-1-carbonyl)pyrrolidin-3-ylthio)-4-methyl-7-oxo-1-azabicyclo[3.2.0]hept-2-ene-2-carboxylic acid]",0.25,0.06,0.5,0.5,–,–,–,–
"C[C@@H](NC(=O)Cn1cnnn1)[C@H]1C(=O)N2C(C(=O)O)=C(S[C@@H]3CN[C@H](C(=O)N4CC[C@@H](NC(=O)CNC(=N)N)C4)C3)[C@H](C)[C@H]12 [Example 567, (4R,5S,6R)-6-((R)-1-(2-(1H-tetrazol-1-yl)acetamido)ethyl)-3-((3S,5S)-5-((R)-3-(2-guanidinoacetamido)pyrrolidine-1-carbonyl)pyrrolidin-3-ylthio)-4-methyl-7-oxo-1-azabicyclo[3.2.0]hept-2-ene-2-carboxylic acid]",1,0.125,0.5,1,–,–,–,–
"C[C@@H](NC(=O)CC1CNC1)[C@H]1C(=O)N2C(C(=O)O)=C(S[C@@H]3CN[C@H](C(=O)N4CC[C@@H](N)C4)C3)[C@H](C)[C@H]12 [Example 568, (4R,5S,6R)-3-((3S,5S)-5-((R)-3-aminopyrrolidine-1-carbonyl)pyrroldin-3-ylthio)-6-((R)-1-(2-(azetidin-3-yl)acetamido)ethyl)-4-methyl-7-oxo-1-azabicyclo[3.2.0]hept-2-ene-2-carboxylic acid]",4,1,2,16,–,–,–,–
"C[C@@H](NC(=O)Cn1cnnn1)[C@H]1C(=O)N2C(C(=O)O)=C(S[C@@H]3CN[C@H](C(=O)N4C[C@@]56CNCC5C[C@@H]4C6)C3)[C@H](C)[C@H]12 (stereo partly drawn) [Example 571, (4R,5S,6R)-6-((R)-1-(2-(1H-tetrazol-1-yl)acetamido)ethyl)-3-((3S,5S)-5-((1R,7R)-3,8-Diaza-tricyclo[5.2.1.01,5]decane-8-carbonyl)-pyrrolidin-3-ylthio)-4-methyl-7-oxo-1-azabicyclo[3.2.0]hept-2-ene-2-carboxylic acid]",1,0.06,0.5,1,–,–,–,–
"C[C@@H](NC(=O)Cn1cnnn1)[C@H]1C(=O)N2C(C(=O)O)=C(S[C@@H]3CN[C@H](C(=O)N4C[C@H]5C[C@H](N)C[C@@]5(N)C4)C3)[C@H](C)[C@H]12 [Example 574, (4R,5S,6R)-6-((R)-1-(2-(1H-tetrazol-1-yl)acetamido)ethyl)-3-((3S,5S)-5-((3aS,5S,6aR)-3a,5-diaminooctahydrocyclo-penta[c]pyrrole-2-carbonyl)pyrrolidin-3-ylthio)-4-methyl-7-oxo-1-azabicyclo[3.2.0]hept-2-ene-2-carboxylic acid]",2,0.5,4,8,–,–,–,–
"C[C@@H](NC(=O)Cn1cnnn1)[C@H]1C(=O)N2C(C(=O)O)=C(S[C@@H]3CN[C@H](C(=O)N4C[C@@H](NC(=N)N)C[C@H]4CO)C3)[C@H](C)[C@H]12 [Example 576, (4R,5S,6R)-6-((R)-1-(2-(1H-tetrazol-1-yl)acetamido)ethyl)-3-((3S,5S)-5-((2S,4S)-4-guanidino-2-(hydroxymethyl)-pyrrolidine-1-carbonyl)pyrrolidin-3-ylthio)-4-methyl-7-oxo-1-azabicyclo[3.2.0]hept-2-ene-2-carboxylic acid]",0.25,0.125,0.5,1,–,–,–,–
"C[C@@H](NC(=O)Cn1cnnn1)[C@H]1C(=O)N2C(C(=O)O)=C(S[C@@H]3CN[C@H](C(=O)N4CC5CCN(CCN)C5C4)C3)[C@H](C)[C@H]12 (stereo partly drawn) [Example 577, (4R,5S,6R)-6-((R)-1-(2-(1H-tetrazol-1-yl)acetamido)ethyl)-3-((3S,5S)-5-(1-(2-aminoethyl)octahydropyrrolo[3,4-b]pyrrole-5-carbonyl)pyrrolidin-3-ylthio)-4-methyl-7-oxo-1-azabicyclo[3.2.0]hept-2-ene-2-carboxylic acid]",4,0.25,2,4,–,–,–,–
